Target: T1, Aldo-keto reductase family 1 member C3 (Homo sapiens, UniProt P42330)
T1 sequence (P42330 whole entry): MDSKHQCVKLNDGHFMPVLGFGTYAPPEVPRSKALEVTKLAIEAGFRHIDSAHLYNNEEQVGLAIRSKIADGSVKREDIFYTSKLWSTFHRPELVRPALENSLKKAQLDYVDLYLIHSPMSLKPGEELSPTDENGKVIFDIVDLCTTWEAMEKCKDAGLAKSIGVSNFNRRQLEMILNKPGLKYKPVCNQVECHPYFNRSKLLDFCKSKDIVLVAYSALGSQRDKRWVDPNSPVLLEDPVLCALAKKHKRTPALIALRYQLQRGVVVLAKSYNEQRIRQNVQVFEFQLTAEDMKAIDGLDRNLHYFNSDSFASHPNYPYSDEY
Test: AKR1C3-Inhibitory Activity Assay: The enzyme used was recombinant human AKR1C3 (Aldo-keto reductase family 1 member C3; GenBank Accession No. NM_003739). This was expressed in E. coli as GST (glutathione S transferase) fusion protein and purified by glutathione Sepharose affinity chromatography. The GST was removed by digestion with thrombin and subsequent size exclusion chromatography (Dufort, I., Rheault, P., Huang, X F., Soucy, P., and Luu-The, V., Endocrinology 140, 568-574 (1999)).For the assay, 50 nl of a 100-fold concentrated solution of the test substance in DMSO were pipetted into a black low-volume 384-well microtiter plate (Greiner Bio-One, Frickenhausen, Germany), 2.5 μl of a solution of AKR1C3 in assay buffer [50 mM potassium phosphate buffer pH 7, 1 mM DTT, 0.0022% (w/v) Pluronic F-127, 0.01% BSA (w/v) and protease inhibitor cocktail (Complete, EDTA-free Protease Inhibitor Cocktail from Roche)] were added and the mixture was incubated for 15 min to allow pre-binding of the substances to the enzyme prior to the enzyme reaction. The enzyme reaction was then started by addition of 2.5 μl of a solution of NADPH (20 μM→final concentration in 5 μl of assay volume is 10 μM) and Coumberone (0.6 μM→final concentration in 5 μl of assay volume is 0.3 μM) in assay buffer, and the resulting mixture was incubated at 22° C. for the reaction time of typically 90 min. […]

| IC50 | SMILES |
| --- | --- |
| 0.7 nM | O=C(c1cnn[nH]1)N1CC2CCC(C1)N2S(=O)(=O)c1ccccc1Br |
| 1.4 nM | O=C(c1cnn[nH]1)N1CC2CCC(C1)N2S(=O)(=O)c1ccccc1Cl |

Reference: ChEMBL document CHEMBL5726067, “[8-(phenylsulfonyl)-3,8-diazabicyclo[3.2.1]oct-3-yl](1H-1,2,3-triazol-4-yl)methanones” (2019)
